Laboratory results reported in patent US20220184081A1, “ANTIPRURITIC AGENT USING PAC1 RECEPTOR ANTAGONIST” (KAGOSHIMA UNIVERSITY, priority 2019, published 2022).

Columns and labels:
[1] = tested on: atopic dermatitis mouse model; assay: Atopic dermatitis mouse model (DNFB); assay type: in vivo, ICR mice; details: 30 mg/kg p.o. 30 minutes before 1 hour video observation; FIG. 13
Description: The present test was carried out with reference to the method of Kitamura et al. that is a test system published as a method for evaluating itch in animals (Kitamura A., Takata R., Aizawa S., et al.: A murine model of atopic dermatitis can be generated by painting the dorsal skin with hapten twice 14 days apart, Scientific Rep., 8: 5988, 2018).
Five-week-old ICR mice (30 mice) were each placed in a cage, and were then conditioned for 1 week. Thereafter, three days before initiation of the test, the waist of each mouse was shaved. On the experiment start date, for the purpose of destroying the function of skin barrier, tape stripping was carried out, and 0.15% 2,4-dinitrofluorobenzene (DNFB) solution [acetone/olive oil (3:1)] was applied to the shaved waist of each mouse, using a 100-μIL pipette. Seven days later, the 0.15% DNFB solution was applied thereto once again, and two hours later, video observation was carried out for 1 hour. The shaved 30 mice were divided into 5 groups (6 mice per group), namely, a 30 mg/kg PA-8 oral (p.o.) administration group, a 30 mg/kg compound 2o oral (p.o.) administration group, a 30 mg/kg PA-9 oral (p.o.) administration group, a 30 mg/kg compound 3d (p.o.) administration group, and a solvent administration group (VEH: oral administration of 10% DMSO aqueous solution). Oral administration was carried out 30 minutes before initiation of the video observation.
An outline of the procedures of a behavioral experiment using the atopic dermatitis mouse model is shown in FIG. 12, and the results obtained by evaluating the time spent in scratching of each group are shown in FIG. 13.

[2] = tested on: serotonin (5-HT)-induced itch mouse model; assay: Serotonin (5-HT)-induced itch mouse model; assay type: in vivo; details: intrathecal pre-administration 30 minutes before 5-HT 50 nmol i.d.; PA-8 0.1 or 1 nmol; P6-38 100 pmol; FIG. 1
Description: 5-HT (50 nmol, 10 μL) was intradermally injected into the waist of each mouse (intradermal injection, i.d.). The reaction of the mice to bite, lick or scratch the injected site was defined as an itch behavior, and the action time was measured every 5 minutes. […] SLN indicates the effects obtained in the case of administering normal saline instead of 5-HT. ACSF is an abbreviation of an artificial cerebrospinal fluid, which was a solvent for P6-38 and PA-8.

[3] = tested on: Compound 48/80-induced itch behavior in mice; assay: Itch behavior induced by Compound 48/80 intradermal administration; assay type: in vivo, mouse; details: intrathecal pre-administration (i.t., 10 minutes before i.d.), 1 nmol; Compound 48/80 100 μg/10 μL; FIG. 11
Description: (§1) Compound 48/80 (100 μg/10 μL) was intradermally injected into the waist of each mouse (intradermal injection, i.d.). The reaction of biting, licking or scratching the injected site was defined as itch behavior, and the behavioral time was counted every 5 minutes. […] DMSO (10% solution, dissolved in normal saline) is a solvent for PA-8 or PA-9.

[4] = tested on: chloroquine-induced itch behavior in mice; assay: Itch behavior induced by chloroquine intradermal administration; assay type: in vivo, mouse; details: intrathecal pre-administration (i.t., 10 minutes before i.d.), 1 nmol; chloroquine 100 μg/10 μL; FIG. 10
Description: as §1, with “Chloroquine” for “Compound 48/80”

[5] = tested on: PACAP-induced itch behavior in mice; assay: Itch behavior induced by PACAP intradermal administration; assay type: in vivo, mouse; details: simultaneous intradermal administration with PACAP, 0.01 to 1 nmol; FIG. 7A, 8, 9
Excerpt: SLN indicates intradermal administration of normal saline. DMSO (10% solution, dissolved in normal saline) is a solvent for PA-8.
SLN indicates intradermal administration of normal saline. VEH (10% DMSO solution, dissolved in normal saline) is a solvent for PA-8 and the compound 2o.
SLN indicates intradermal administration of normal saline. VEH (10% DMSO solution, dissolved in normal saline) is a solvent for PA-9 and the compound 3d.

mouse VPAC1 receptor = biological target: T1, mouse VPAC1 receptor (Mus musculus, UniProt P97751); assay: CREB phosphorylation by PACAP stimulus, Western blot, VPAC1/CHO cells; assay type: cell-based; details: PA-8 10 pM to 10 nM, FIG. 4B
T1 construct: expressed in transfected cells; host or cells: CHO cells
T1 sequence (P97751 31-459): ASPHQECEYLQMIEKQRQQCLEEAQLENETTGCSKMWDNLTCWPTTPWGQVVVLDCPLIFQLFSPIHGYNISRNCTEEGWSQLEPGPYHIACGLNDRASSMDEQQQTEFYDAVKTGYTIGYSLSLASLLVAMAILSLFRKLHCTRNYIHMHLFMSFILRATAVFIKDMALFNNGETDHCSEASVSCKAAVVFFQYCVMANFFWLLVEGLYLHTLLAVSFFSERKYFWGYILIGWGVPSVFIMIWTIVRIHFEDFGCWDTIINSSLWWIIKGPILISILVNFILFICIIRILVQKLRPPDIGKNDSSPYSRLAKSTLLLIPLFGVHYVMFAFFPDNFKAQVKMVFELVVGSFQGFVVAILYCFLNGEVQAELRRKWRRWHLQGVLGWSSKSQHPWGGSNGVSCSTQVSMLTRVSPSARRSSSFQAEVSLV
Description: The effect of each compound on the phosphorylation of CREB (cAMP-responsive element-binding protein) produced by a PACAP stimulus was examined by Western blot analysis using an anti-phosphorylated CREB (pCREB) antibody with a mouse PAC1 receptor-expressing CHO cells (PAC1/CHO cells) and a mouse VPAC1 receptor-expressing CHO cells (VPAC1/CHO cells).
Specifically, treatment with a compound (PA-8, compound 2j and compound 2o) at 10 pM to 10 nM or a solvent therefor, DMSO (VEH: 0.1% DMSO-containing phosphate buffer solution) was performed for 30 minutes, 1 nM PACAP was then added, and protein was recovered within 30 minutes after a PACAP stimulus.

`C=CCOc1ccc(C2CC(=O)Nc3nc(N)[nH]c(=O)c32)cc1OC` (stereo not drawn) [PA-8] was tested, and the “itch behavior induced by the DNFB treatment (time spent in scratching)” value [1] was “significantly suppressed”, the “5-HT-induced itch behavior (bite, lick or scratch the injected site, action time)” value [2] was “almost completely suppressed” and the “Compound 48/80-induced itch behavior” value [3] was “almost completely suppressed”. The chloroquine-induced itch behavior [4] was “almost completely suppressed”, the “biting, licking or scratching behavior induced by PACAP (100 pmol) intradermal administration” value [5] was “suppressed in a dose-dependent manner” and the “CREB phosphorylation by PACAP (1 nM)” value (mouse VPAC1 receptor) was “did not suppress CREB phosphorylation”.
